System: T1, Exonuclease III (Exo III)
T1 construct: gene xthA; commercial enzyme from New England BioLabs
Experiment: hairpin DNA digestion, coupled to Cas12a collateral cleavage of fluorescent reporter
Assay type: biochemical
Conditions: acts by metal chelation, not a specific binder; Exo III 5 U/mL, 10 min preincubation, hairpin probe substrate, magnesium acetate buffer pH 7.9, 37 °C; EDTA carried into the Cas12a read-out step

O=C(O)CN(CCN(CC(=O)O)CC(=O)O)CC(=O)O [EDTA]
IC50: 6.34 mM
